From patent US20070161592A1, “Method of treating fear” (priority 2005, published 2007)

How the values were obtained:
[1] = tested on: pyramidal neurons in layer II/III of ACC slices; assay: LTP induced by pairing training, whole-cell patch-clamp recordings in ACC slices; format: cell-based, mouse
Procedure: Experiments were performed in a recording chamber on the stage of an Axioskop 2FS microscope with infrared DIC optics for visualizing whole-cell patch clamp recordings. EPSCs were recorded from layer II-III neurons using an Axon 200B amplifier (Axon Instruments, CA) and stimulations were delivered using a bipolar tungsten stimulating electrode placed in layer V of the ACC. In hippocampal slices, EPSCs were evoked by stimulating the Schaffer collateral-commissural pathway. EPSCs were induced by repetitive stimulations at 0.02 Hz and neurons were voltage clamped at −70 mV. […] The first protocol involved paired presynaptic 80 pulses at 2 Hz with postsynaptic depolarization at +30 mV (referred to as pairing training). The second involved paired 3 presynaptic stimuli that caused 3 EPSPs (10 ms ahead) with 3 postsynaptic APs at 30 Hz, paired 15 times every 5 s (named as EPSPs-APs protocol). The third involved theta-burst stimulation (5 trains of burst with 4 pulses at 100 Hz, at 200 ms interval; repeated 4 times at intervals of 10 s; named as TBS). The NMDAR-mediated component of EPSCs was pharmacologically isolated in Mg^2+-free ACSF containing: CNQX (20 μM), glycine (1 μM) and picrotoxin (100 μM). […] Neurons were voltage clamped at −60 mV and NMDARs-mediated EPSCs were evoked at 0.05 Hz. Picrotoxin (100 μM) was always present to block GABAA receptor-mediated inhibitory synaptic currents. The access resistance was 15-30 MΩ and was monitored throughout the experiment. […] Results are expressed as means±SEM. Statistical comparisons were performed using the Student t-test.
Whole-cell patch-clamp recordings were conducted in visually identified pyramidal neurons in layer II/III of ACC slices. Pyramidal neurons were identified by injecting depolarized currents into neurons to induce action potentials. […] Pyramidal neurons were also identified based on the pyramid shape of their somata by putting Lucifer yellow into the intracellular solution (FIG. 1A).

NMDAR-mediated signaling = settings: intra-hippocampal injections; cited from earlier work
NR1/NR2A = settings: cited from earlier work
adult ACC neurons [2] = assay: LTP induced by theta-burst stimulation (TBS) in ACC slices; format: cell-based, mouse; settings: 0.4 μM
Procedure: (§1) Coronal brain slices ([…]) from 6-8-week-old C57BL/6 mice, containing ACC or hippocampus, were prepared using standard methods (Wei et al., 2001). Slices were transferred to a submerged recovery chamber containing oxygenated (95% O2 and 5% CO2) artificial cerebrospinal fluid (ACSF) (in mM: 124 NaCl, 4.4 KCl, 2 CaCl2, 1 MgSO4, 25 NaHCO3, 1 NaH2PO4, 10 glucose) at room temperature for at least 1 h.
(§2) Experiments were performed in a recording chamber on the stage of an Axioskop 2FS microscope with infrared DIC optics for visualizing whole-cell patch clamp recordings. EPSCs were recorded from layer II-III neurons using an Axon 200B amplifier (Axon Instruments, CA) and stimulations were delivered using a bipolar tungsten stimulating electrode placed in layer V of the ACC. In hippocampal slices, EPSCs were evoked by stimulating the Schaffer collateral-commissural pathway. EPSCs were induced by repetitive stimulations at 0.02 Hz and neurons were voltage clamped at −70 mV. The recording pipettes (3-5 MΩ) were filled with solution containing (mM) 145 K-gluconate, 5 NaCl, 1 MgCl2, 0.2 EGTA, 10 HEPES, 2 Mg-ATP, and 0.1 Na3-GTP (adjusted to pH 7.2 with KOH). After obtaining stable EPSCs for 10 min, three kinds of LTP induction paradigms were used within 12 min after establishing the whole-cell configuration to prevent wash out effect on LTP induction (Tsvetkov et al., 2002). The first protocol involved paired presynaptic 80 pulses at 2 Hz with postsynaptic depolarization at +30 mV (referred to as pairing training). The second involved paired 3 presynaptic stimuli that caused 3 EPSPs (10 ms ahead) with 3 postsynaptic APs at 30 Hz, paired 15 times every 5 s (named as EPSPs-APs protocol). The third involved theta-burst stimulation (5 trains of burst with 4 pulses at 100 Hz, at 200 ms interval; repeated 4 times at intervals of 10 s; named as TBS). The NMDAR-mediated component of EPSCs was pharmacologically isolated in Mg^2+-free ACSF containing: CNQX (20 μM), glycine (1 μM) and picrotoxin (100 μM). The patch electrodes contained (in mM) 102 cesium gluconate, 5 TEA-chloride, 3.7 NaCl, 11 BAPTA, 0.2 EGTA, 20 HEPES, 2 MgATP, 0.3 NaGTP, and 5 QX-314 chloride (adjusted to pH 7.2 with CsOH). Neurons were voltage clamped at −60 mV and NMDARs-mediated EPSCs were evoked at 0.05 Hz. Picrotoxin (100 μM) was always present to block GABAA receptor-mediated inhibitory synaptic currents. The access resistance was 15-30 MΩ and was monitored throughout the experiment. Data were discarded if access resistance changed by more than 15% during an experiment. Results are expressed as means±SEM. Statistical comparisons were performed using the Student t-test. […]

NR1/NR2B = settings: cited from earlier work
adult ACC neurons [3] = assay: LTP induced by EPSPs-APs protocol in ACC slices; format: cell-based, mouse; settings: 0.4 μM
Procedure: as §1, §2

[4] = tested on: NMDAR-mediated currents in the hippocampus; assay: NMDAR-mediated EPSCs in hippocampal CA1 neurons; format: cell-based, mouse; settings: for depression of total NMDAR-mediated currents: hippocampal CA1 neurons
Procedure: as §1
(§3) Experiments were performed in a recording chamber on the stage of an Axioskop 2FS microscope with infrared DIC optics for visualizing whole-cell patch clamp recordings. EPSCs were recorded from layer II-III neurons using an Axon 200B amplifier (Axon Instruments, CA) and stimulations were delivered using a bipolar tungsten stimulating electrode placed in layer V of the ACC. In hippocampal slices, EPSCs were evoked by stimulating the Schaffer collateral-commissural pathway. EPSCs were induced by repetitive stimulations at 0.02 Hz and neurons were voltage clamped at −70 mV. The recording pipettes (3-5 MΩ) were filled with solution containing (mM) 145 K-gluconate, 5 NaCl, 1 MgCl2, 0.2 EGTA, 10 HEPES, 2 Mg-ATP, and 0.1 Na3-GTP (adjusted to pH 7.2 with KOH). After obtaining stable EPSCs for 10 min, three kinds of LTP induction paradigms were used within 12 min after establishing the whole-cell configuration to prevent wash out effect on LTP induction (Tsvetkov et al., 2002). The first protocol involved paired presynaptic 80 pulses at 2 Hz with postsynaptic depolarization at +30 mV (referred to as pairing training). The second involved paired 3 presynaptic stimuli that caused 3 EPSPs (10 ms ahead) with 3 postsynaptic APs at 30 Hz, paired 15 times every 5 s (named as EPSPs-APs protocol). The third involved theta-burst stimulation (5 trains of burst with 4 pulses at 100 Hz, at 200 ms interval; repeated 4 times at intervals of 10 s; named as TBS). The NMDAR-mediated component of EPSCs was pharmacologically isolated in Mg^2+-free ACSF containing: CNQX (20 μM), glycine (1 μM) and picrotoxin (100 μM). The patch electrodes contained (in mM) 102 cesium gluconate, 5 TEA-chloride, 3.7 NaCl, 11 BAPTA, 0.2 EGTA, 20 HEPES, 2 MgATP, 0.3 NaGTP, and 5 QX-314 chloride (adjusted to pH 7.2 with CsOH). Neurons were voltage clamped at −60 mV and NMDARs-mediated EPSCs were evoked at 0.05 Hz. Picrotoxin (100 μM) was always present to block GABAA receptor-mediated inhibitory synaptic currents. The access resistance was 15-30 MΩ and was monitored throughout the experiment. Data were discarded if access resistance changed by more than 15% during an experiment. Results are expressed as means±SEM. Statistical comparisons were performed using the Student t-test.
(§4) One possible mechanism is that NR2B-containing receptors may contribute more to total NMDA currents in ACC synapses than in hippocampal synapses. […] Application of 0.1 μM or 0.4 μM NVP-AAM077 depressed total NMDAR-mediated currents by 59.0±4.3% (n=5) and 63.2±1.7% (n=6) in the ACC respectively (FIG. 5). On the other hand, application of 0.3 μM or 3 μM Ro25-6981 attenuated total NMDAR-mediated currents by 18.0±1.9% (n=5) and 18.1±3.4% (n=7) in the ACC respectively, showing that 0.3 μM Ro25-6981 was sufficient to block the NR2B-mediated currents (FIG. 5). This experiment was repeated in hippocampal CA1 neurons. […] However, unlike in the ACC, application of 0.3 μM Ro25-6981 alone potentiated, rather than blocked, total NMDAR-mediated currents by 51.3±16.4% in the hippocampus (FIG. 5).
The same experiment was repeated in the hippocampus.

[5] = tested on: NMDAR-mediated currents in the ACC; assay: NMDAR-mediated EPSCs in the ACC; format: cell-based, mouse
Procedure: as §1, §3, §4
The relative percentages of NR2A- and NR2B-mediated currents were determined by applying specific antagonists, NVP-AAM077 (0.4 μM) and Ro25-6981 (0.3 μM). The concentrations used here were based on the results from FIG. 5 and a recent study performed in the hippocampus (Liu et al., 2004). Application of NVP-AAMO77 depressed total NMDAR-mediated currents by 63.2±1.7% and the addition of Ro25-6981 to the same neuron further reduced currents by 13.7±1.4% (n=6) in the ACC (FIG. 6). […]

[6] = FIG. 1E/F, BAPTA in the intracellular solution

## NC(CCCP(=O)(O)O)C(=O)O (centres unmarked) [AP-5]
[1]; AP-5 50 μM
  synaptic responses after pairing training (LTP), % of baseline: 97.8±5.7%
[1]; [6]
  effect on LTP induced by pairing training: completely blocked

## O=C(O)CN(CC(=O)O)c1ccccc1OCCOc1ccccc1N(CC(=O)O)CC(=O)O [BAPTA]
[1]; 11 mM BAPTA in the pipette solution
  synaptic responses after pairing training (LTP), % of baseline: 106.1±10.3%
[1]; [6]
  effect on LTP induced by pairing training: completely blocked

## C[C@]12N[C@H](Cc3ccccc31)c1ccccc12 [MK-801]
NMDAR-mediated signaling
  contextual freezing: reduced contextual freezing

## C[C@H](NC(c1cccc2[nH]c(=O)c(=O)[nH]c12)P(=O)(O)O)c1ccc(Br)cc1 (some centres unmarked) [NVP-AAM077]
NR1/NR2A
  IC50: 0.014 µM
[1]; 0.1 μM
  synaptic responses after pairing training (LTP), % of baseline: 134.9±6.9%
[1]; 0.1 μM, FIG. 3
  effect on LTP induced by pairing training: partially depressed
[1]; 0.4 μM
  synaptic responses after pairing training (LTP), % of baseline: 131.6±11.9%
[1]; 0.4 μM, FIG. 3
  effect on LTP induced by pairing training: partially depressed
Adult ACC neurons [2]
  LTP after TBS, % of baseline: 97.0±13.4%
Adult ACC neurons [2]; FIG. 4F
  effect on LTP induced by TBS: blocked
NR1/NR2B
  IC50: 1.8 µM
Adult ACC neurons [3]
  potentiation after EPSPs-APs protocol, % of baseline: 102.0±11.5%
Adult ACC neurons [3]; FIG. 4C
  effect on LTP induced by EPSPs-APs protocol: blocked
[4]; 0.1 μM
  depression of total NMDAR-mediated currents: 54.4±3.2%
[4]; 0.4 μM
  depression of total NMDAR-mediated currents: 73.1±1.7%
[4]; hippocampus, bath application, FIG. 5
  effect on total NMDAR-mediated currents: depressed
[5]; 0.1 μM
  depression of total NMDAR-mediated currents: 59.0±4.3%
[5]; 0.4 μM NVP-AAM077 added after first applying 0.3 μM Ro25-6981
  depression of total NMDAR-mediated currents: 64.2±3.0%
[5]; 0.4 μM, applied alone or first
  depression of total NMDAR-mediated currents: 63.2±1.7%
[5]; bath application of different doses, FIG. 5
  effect on total NMDAR-mediated currents: depressed

## CC(C(O)c1ccc(O)cc1)N1CCC(Cc2ccccc2)CC1 (centres unmarked) [ifenprodil]
NR1/NR2A
  IC50: 146 µM
[1]; 3 μM
  synaptic responses after pairing training (LTP), % of baseline: 128.1±7.4%
[1]; 3 μM, FIG. 3
  effect on LTP induced by pairing training: partially depressed
NR1/NR2B
  IC50: 0.34 µM
